# In patent US8987286B2, “Substituted pyrimido[1,2-b]indazoles and their use as modulators of the Pi3K/Akt pathway” (Bayer Intellectual Property GmbH, priority 2010, dated 2015):
# Target: Akt1 (Homo sapiens (Human), UniProt P31749)
# Assay: Akt1 kinase assay (Akt1 TR-FRET assay)
# Type: biochemical
# Conditions: His-tagged human recombinant full-length Akt1, 10 μM ATP, 1 μM peptide substrate
# Excerpt: Biological Assay 1.0: Akt1 Kinase Assay
# Akt1 inhibitory activity of compounds of the present invention was quantified employing the Akt1 TR-FRET assay as described in the following paragraphs.
# His-tagged human recombinant kinase full-length Akt1 expressed in insect cells was purchased form Invitrogen (part number PV 3599). As substrate for the kinase reaction the biotinylated peptide biotin-Ahx-KKLNRTLSFAEPG (C-terminus in amide form) was used which can be purchased e.g. from the company Biosynthan GmbH (Berlin-Buch, Germany).
# For the assay 50 nl of a 100 fold concentrated solution of the test compound in DMSO was pipetted into a black low volume 384 well microtiter plate (Greiner Bio-One, Frickenhausen, Germany), 2 μl of a solution of Akt1 in assay buffer [50 mM TRIS/HCl pH 7.5, 5 mM MgCl2, 1 mM dithiothreitol, 0.02% (v/v) Triton X-100 (Sigma)] were added and the mixture was incubated for 15 min at 22° C. to allow pre-binding of the test compounds to the enzyme before the start of the kinase reaction. Then the kinase reaction was started by the addition of 3 μl of a solution of adenosine-tri-phosphate (ATP, 16.7 μM=>final conc. in the 5 μl assay volume is 10 μM) and substrate (1.67 μM=>final conc. in the 5 μl assay volume is 1 μM) in assay buffer and the resulting mixture was incubated for a reaction time of 60 min at 22° C. The concentration of Akt1 in the assay was adjusted depending of the activity of the enzyme lot and was chosen appropriate to have the assay in the linear range, typical enzyme concentrations were in the range of about 0.05 ng/μl (final conc. in the 5 μl assay volume).
# The reaction was stopped by the addition of 5 μl of a solution of HTRF detection reagents (200 nM streptavidine-XL665 [Cisbio] and 1.5 nM anti-phosho-Serine antibody [Millipore, cat. #35-001] and 0.75 nM LANCE Eu-W 1024 labeled anti-mouse IgG antibody [Perkin Elmer]) in an aqueous EDTA-solution (100 mM EDTA, 0.1% (w/v) bovine serum albumin in 50 mM HEPES/NaOH pH 7.5).
# The resulting mixture was incubated 1 h at 22° C. to allow the binding of the biotinylated phosphorylated peptide to the streptavidine-XL665 and the antibodies. Subsequently the amount of phosphorylated substrate was evaluated by measurement of the resonance energy transfer from the anti-mouse-IgG-Eu-Chelate to the streptavidine-XL665. Therefore, the fluorescence emissions at 620 nm and 665 nm after excitation at 350 nm was measured in a HTRF reader, e.g. a Rubystar (BMG Labtechnologies, Offenburg, Germany) or a Viewlux (Perkin-Elmer). The ratio of the emissions at 665 nm and at […] was taken as the measure for the amount of phosphorylated substrate. The data were normalised (enzyme reaction without inhibitor=0% inhibition, all other assay components but no enzyme=100% inhibition).
# Sequence of Akt1 (P31749 whole entry): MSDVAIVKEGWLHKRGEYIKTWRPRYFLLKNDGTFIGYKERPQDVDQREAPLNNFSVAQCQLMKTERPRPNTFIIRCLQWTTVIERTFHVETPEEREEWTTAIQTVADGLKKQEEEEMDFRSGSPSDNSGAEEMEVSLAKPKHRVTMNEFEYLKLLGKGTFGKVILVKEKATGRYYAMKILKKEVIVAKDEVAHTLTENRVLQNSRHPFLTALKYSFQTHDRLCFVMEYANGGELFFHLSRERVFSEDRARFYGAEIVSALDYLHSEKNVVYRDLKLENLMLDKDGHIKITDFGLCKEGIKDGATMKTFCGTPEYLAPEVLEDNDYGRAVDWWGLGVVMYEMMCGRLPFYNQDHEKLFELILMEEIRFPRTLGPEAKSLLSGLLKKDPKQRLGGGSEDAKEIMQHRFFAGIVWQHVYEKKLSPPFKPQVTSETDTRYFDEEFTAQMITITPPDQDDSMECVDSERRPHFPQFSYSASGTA
row,SMILES,IC50
1,"NC1(c2ccc(-c3nc4c5cccc(-c6cn[nH]c6)c5nn4cc3-c3ccccc3)cc2)CCC1 [Example 8.5, 1-{4-[3-Phenyl-7-(1H-pyrazol-4-yl)pyrimido[1,2-b]indazol-2-yl]-phenyl}cyclobutylamine×0.5 formiate]",160 nM
2,"COC(=O)c1cccc2c1nn1cc(-c3ccccc3)c(-c3ccc(C4(N)CCC4)cc3)nc21 [Example 10, 2-[4-(1-Aminocyclobutyl)phenyl]-3-phenylpyrimido[1,2-b]indazole-7-carboxylic acid methyl ester formiate]",740 nM
3,"NC(=O)/C=C/c1cccc2c1nn1cc(-c3ccccc3)c(-c3ccc(C4(N)CCC4)cc3)nc21 [Example 14, (E)-3-{2-[4-(1-Aminocyclobutyl)phenyl]-3-phenylpyrimido[1,2-b]indazol-7-yl}-acrylamide]",580 nM

# Results, then the compound that gave them:
row,IC50,SMILES
1,15 nM,"NC1(c2ccc(-c3nc4c5ccc(-c6ccn[nH]6)cc5nn4cc3-c3ccccc3)cc2)CCC1 [Example 15.0, 1-{4-[3-Phenyl-8-(1H-pyrazol-5-yl)pyrimido[1,2-b]indazol-2-yl]phenyl}-cyclobutylamine]"
2,10 nM,"Cc1cc(-c2ccc3c(c2)nn2cc(-c4ccccc4)c(-c4ccc(C5(N)CCC5)cc4)nc32)[nH]n1 [Example 15.1, 1-{4-[8-(3-Methyl-1H-pyrazol-5-yl)-3-phenylpyrimido[1,2-b]indazol-2-yl]phenyl}cyclobutylamine]"
3,10 nM,"NC1(c2ccc(-c3nc4c5cc(-c6ccn[nH]6)ccc5nn4cc3-c3ccccc3)cc2)CCC1 [Example 15.2, 1-{4-[3-Phenyl-9-(1H-pyrazol-5-yl)pyrimido[1,2-b]indazol-2-yl]-phenyl}cyclobutylamine]"
4,6 nM,"Cc1cc(-c2ccc3nn4cc(-c5ccccc5)c(-c5ccc(C6(N)CCC6)cc5)nc4c3c2)[nH]n1 [Example 15.3, 1-{4-[9-(3-Methyl-1H-pyrazol-5-yl)-3-phenylpyrimido[1,2-b]indazol-2-yl]phenyl}cyclobutylamine]"
5,10 nM,"COC(=O)/C=C/c1ccc2nn3cc(-c4ccccc4)c(-c4ccc(C5(N)CCC5)cc4)nc3c2c1 [Example 15.4, (E)-3-{2-[4-(1-Aminocyclobutyl)phenyl]-3-phenylpyrimido[1,2-b]indazol-9-yl}acrylic acid methyl ester]"
6,30 nM,"NC(=O)/C=C/c1ccc2nn3cc(-c4ccccc4)c(-c4ccc(C5(N)CCC5)cc4)nc3c2c1 [Example 15.5, (E)-3-{2-[4-(1-Aminocyclobutyl)phenyl]-3-phenylpyrimido[1,2-b]indazol-9-yl}acrylamide]"
